Measured values: BindingDB's records for doi:10.1021/jm000409z (Dupont Pharmaceuticals, 2001)

Target: Complement factor I (Homo sapiens) (UniProt P05156)
Assay: In vitro activity against human Complement factor I

Sequence of Complement factor I (Homo sapiens) (P05156 whole entry, looked up): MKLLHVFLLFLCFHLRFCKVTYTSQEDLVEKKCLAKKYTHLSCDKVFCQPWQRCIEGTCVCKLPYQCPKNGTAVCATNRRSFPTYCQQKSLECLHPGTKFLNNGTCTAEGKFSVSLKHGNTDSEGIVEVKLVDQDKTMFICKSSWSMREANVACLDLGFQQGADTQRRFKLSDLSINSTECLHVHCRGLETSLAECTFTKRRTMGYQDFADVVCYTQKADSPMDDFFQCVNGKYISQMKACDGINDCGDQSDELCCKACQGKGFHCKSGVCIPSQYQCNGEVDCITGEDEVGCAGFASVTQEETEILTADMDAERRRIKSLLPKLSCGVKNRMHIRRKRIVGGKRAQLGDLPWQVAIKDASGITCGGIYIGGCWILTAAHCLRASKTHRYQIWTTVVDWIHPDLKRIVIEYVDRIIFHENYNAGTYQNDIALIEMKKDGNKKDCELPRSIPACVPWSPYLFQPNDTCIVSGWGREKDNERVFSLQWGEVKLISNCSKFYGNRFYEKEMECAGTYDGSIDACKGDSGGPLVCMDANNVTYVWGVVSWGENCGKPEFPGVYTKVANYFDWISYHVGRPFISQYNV

- IC50: 44 µM
SMILES: CS(=O)(=O)c1ccccc1-c1ccc(NC(=O)c2cc(C(F)(F)F)nn2-c2cccc(CN)c2)c(F)c1
